Data on 6 compounds can be found in patent EP2197879B1, “C7-SUBSTITUTED CAMPTOTHECIN ANALOGS” (priority 2007, dated 2009).

For series [1] the following is noted: cited from earlier work.
The test system of series [2] is advanced malignant melanoma. As to conditions: 90-360 mg/m^2 repeated every 2 weeks; fifteen patients; cited from earlier work.
The subject of series [3] is advanced gastrointestinal cancer. The following applies: cited from earlier work.
The conditions of series [4]: cited from earlier work; for No. of Patients With Cystitis / No. of Patients With Diarrhea: 5-day Course; for Number of Patients with Cystitis / Number of Patients with Diarrhea: Single-Dose Method.
Series [5] relates to human plasma proteins.
The conditions of series [6]: closed E-ring lactone form; drug dissolving in 1 mL of water; cited from earlier work.
For series [7] the following is noted: clinical studies in Japan alone; cited from earlier work.
For series [8], the system named is angiogenesis. As to conditions: dose levels of 210 mg/kg; cited from earlier work.
The subject of series [9] is A2780/WT (wild-type) cells. In words: Sulforhodamine B (SRB) cytotoxicity assay in A2780/WT cells. It counts as cell-based. The following applies: Homo sapiens, A2780, read-out: A2780/ WT (IC50). (In SRB staining, fixed cells bind dye roughly in proportion to their protein.)
Series [10] has as its system A2780/DX5 cells. In words: Sulforhodamine B (SRB) cytotoxicity assay in A2780/DX5 cells. It counts as cell-based.
Series [11] concerns panel of over 20 human cancer cell lines. The experiment in a line: In vitro antitumor potency on a panel of human cancer cell lines. The following applies: compared with Topotecan or SN-38.
The conditions of series [12]: cited from earlier work. This is another data set of the same source.
[13] abbreviates: 5-Day Course (27 Patients Total), 4 wks.
[14] abbreviates: 5-Day Course (27 Patients Total), 8 wks.
Where [15] appears, read: 5-Day Course (27 Patients Total), 12 wks.
[16] abbreviates: Single-Dose Method (34 Patients Total), 3 wks.
Where [17] appears, read: Single-Dose Method (34 Patients Total), 6 wks.
Setting [18] is: Single-Dose Method (34 Patients Total), 9 wks.
Where [19] appears, read: Single-Dose Method (34 Patients Total), 12 wks.

The structures appear in SMILES notation. Where two headings read alike, the source gives them in different places.

Take `CC[C@@]1(O)C(=O)OCc2c1cc1n(c2=O)Cc2cc3ccccc3nc2-1` [CPT sodium]: the “patients with dose limiting bladder toxicity” value in [1] (doses of 20 to 30 mg/m^2) is listed as “three”. Further, in [1] (doses of 30 and 44 mg/m^2), the “additional patients with bladder toxicity” value is given as “two”. Moreover, the clinical benefit result in series [1] (eight patients with measurable disease, 5-day courses) is given as “No clinical benefit”. In addition, the “patients with a 50% or greater decrease in tumor diameter” value in [2] is “None”. For the same compound, in series [2], the “patients with less pronounced transient tumor regression” value is recorded as “three”. For the same compound, the patients with myelosuppression in series [2] is 11. Further, the “Objective Results: Improved” value in series [3] (setting [13]) is given as 1; in series [3] (setting [16]), 4; in series [3] (setting [17]) it was 2; in [3] (setting [18]) it was 2. Also, the “Objective Results: Stable” value in [3] (setting [13]) is given as 12; in series [3] (setting [14]), 7; in series [3] (setting [15]), 6; in [3] (setting [16]), 17; in series [3] (setting [17]), 11; in series [3] (setting [18]), 8. The “Objective Results: Stable” value in series [3] (setting [19]) is 6. Besides, the “Objective Results: Worse” value in [3] (setting [13]) is 14; in series [3] (setting [14]) it was 20; in series [3] (setting [15]), 21; in [3] (setting [16]), 13; in [3] (setting [17]), 21; in series [3] (setting [18]), 24. Besides, the “Objective Results: Worse” value in series [3] (setting [19]) is 28. Besides, in series [3] (after 2 months (8 or 9 weeks), of 61 patients), the “patients with partial objective improvement” value is recorded as “two”. Besides, the patients with improvement entry in [3] (at 3 months, of 61 patients) is listed as “none”. In series [3] (at 3 wks, only), the “patients who showed a 25%-50% response” value is “*A total of 3 patients showed a 25%-50% response at 3 wks, only”. In addition, the Cystitis in series [4] (5-Day Course) is recorded as 48 (P<0.05) % of 27 Patients; in [4] (Single Dose) it was 24 % of 34 Patients. For the same compound, the “No. of Patients With Cystitis” value is 1 in series [4] (11 mg/m^2 X 5), 4 in series [4] (15 mg/m^2 X 5), 2 in [4] (17 mg/m^2 X 5) and 6 in series [4] (20 mg/m^2 X 5). Besides, the “No. of Patients With Diarrhea” value is listed as 1 in series [4] (15 mg/m^2 X 5), 4 in [4] (17 mg/m^2 X 5), 4 in series [4] (20 mg/m^2 X 5) and 1 in series [4] (22 mg/m^2 X 5). Further, the “Number of Patients with Cystitis” value in series [4] (100 mg/m^2) is recorded as 2; in [4] (110 mg/m^2), 1; in [4] (120 mg/m^2) it was 2; in series [4] (180 mg/m^2), 3. For the same compound, the “Number of Patients with Diarrhea” value in series [4] (110 mg/m^2) was 1; in series [4] (120 mg/m^2), 4; in [4] (180 mg/m^2), 2.
`CC[C@@]1(O)C(=O)OCc2c1cc1n(c2=O)Cc2cc3ccccc3nc2-1` [CPT, (S)-4-Ethyl-4-hydroxy-1 H-pyrano[3',4':6,7]indolizino[1,2-b]quinoline-3,14(4H,12H)-dione]: in series [5] (100 nM Compound Concentrations, 48 hours or longer at room temperature), the “Percent of Free Camptothecin Analogs in Human Plasma” value (“Percent of Free Camptothecin Analogs” below) is 0%. Further, the solubility in water result in [6] is given as “approximately 0.1 µg”.
With `CCc1c2c(nc3ccc(OC(=O)N4CCC(N5CCCCC5)CC4)cc13)-c1cc3c(c(=O)n1C2)COC(=O)[C@]3(O)CC` [CPT-11, 7-ethyl-10-[4-(1-piperidino)-1-piperidino] carbonyloxy camptothecin], in series [7], the “patient deaths directly attributable to drug toxicity” value was “approximately 100”. Further, the neovascularization result in series [8] is reported as “significant reduction of neovascularization”.
Take `CC[C@@]1(O)C(=O)OCc2c1cc1n(c2=O)Cc2c-1nc1ccccc1c2CC[Si](C)(C)Cn1cncn1` [Compound 30, (4S)-11-[2-(dimethyl-[1,2,4]triazol-1-ylmethylsilanyl)-ethyl]-4-ethyl-4-hydroxy-1,12-dihydro-4H-2-oxa-6,12a-diaza-dibenzo[b,h]fluorene-3,13-dione]: the IC50 in series [9] is 7.7 nM; in series [10] (Homo sapiens, SRB assay, A2780/DX5 cells, read-out: A2780/ DX5 (IC50)) it was 60.4 nM. Also, the “Percent of Free Camptothecin Analogs” value in series [5] (human, 100 nM) amounted to 8%. For the same compound, the “IC50 Ratio” value in series [10] (A2780/DX5 versus A2780/WT) amounted to 7.8.
Consider `CC[C@@]1(O)C(=O)OCc2c1cc1n(c2=O)Cc2c-1nc1ccccc1c2CC[Si](C)(C)C` [Karenitecin, (4S)-4-ethyl-4-hydroxy-11-[2-(trimethylsilyl)ethyl]-1H-pyrano[3':4':6,7]indolizino[1,2-b]quinoline-3,14(4H,12H)-dione], for which, in series [5], the “Percent of Free Camptothecin Analogs” value was 1.2% and the protein-bound was 98-99%. Moreover, the antitumor potency result in series [11] is “significantly more potent”.
As for `CC[C@@](O)(C(=O)O)c1cc2n(c(=O)c1CO)Cc1cc3ccccc3nc1-2` [carboxylate form of CPT], in [12] (carboxylate form from sodium hydroxide formulation), the “anti-tumor potency relative to the original, non-hydrolyzed lactone form” value is “approximately one-tenth or less”. Also, in series [12] (carboxylate form versus lactone), the anti-tumor activity reduced result is given as “at least 10 fold”.
